According to patent US10570179B2, “Substituted urea depsipeptide analogs as activators of the CLPP endopeptidase” (priority 2016, dated 2020):
In brackets after ≈: the same amount, converted by molar mass. Like-named read-outs stand apart in the source and are kept apart here. Numbered stars: 1 amine (or outer) side, 2 acyl side, 3 side chain; on linkers, the order of the positions; unused ones are H or OH. Bridge positions count the residues as written; N and C are the ends. Square brackets hold non-standard residues; d marks the D form. Peptide text beside a SMILES is read from it. * marks the point of attachment. Piperazine(2S-CO,4-Me) = CN1CCN[C@H](C(=O)O)C1; Phe(3,5-F2) = N[C@@H](Cc1cc(F)cc(F)c1)C(=O)O; Phe(3-Me) = Cc1cccc(C[C@H](N)C(=O)O)c1; X4 = O=C1CN([*:1])[C@H](C(=O)[*:2])CN1; NH(4-Cl-2-F-phenyl) = Fc1cc(Cl)ccc1N*; Pro(4R-Me) = C[C@H]1CN[C@H](C(=O)O)C1; aThr = C[C@H](O)[C@H](N)C(=O)O; CO = O=C([*:1])[*:2]

Assays:
[1] = Solubility determination; format: physicochemical; settings: for solubility kinetic at 10 min: 22 °C, aqueous buffer, kinetic from dmso stock
Experimental: Test compounds were synthesized and supplied by the Department of Chemical Biology and Therapeutics at St. Jude Children's Research Hospital (Memphis, Tenn.). LC-MS chromasolv grade acetonitrile (ACN) was purchased from Fisher Scientific (Loughborough, UK). LC-MS chromasolv grade formic acid was obtained from Sigma-Aldrich (St. Louis, Mo.). Milli-Q water as an ultrapure laboratory grade water was used in aqueous mobile phase.
Chromatographic separation was performed on an Acquity UPLC BEH C18 1.7 μm, 2.1×50 mm column (Waters Corporation, Milford, Mass.) using an Acquity ultra performance liquid chromatography system. The total flow rate was 0.9 mL/min. The sample injection volume was 10 μL. The UPLC column was maintained at 60° C. and the gradient program started at 90% A (0.1% formic acid in MilliQ H2O), changed to 70% A over 0.2 min, to 95% B (0.1% formic acid in ACN) over 1.4 minutes, held for 0.35 minutes, then to 90% A over 0.05 minutes.
Mass data was acquired with an Acquity SQD Mass Spectrometer. The mass spectrometer was operated in positive-ion mode with electrospray ionization. The conditions were as follows: capillary voltage 3.5 kV, cone voltage 30 V, source temperature 150° C., desolvation temperature 350° C., desolvation gas 500 L/hr, cone gas 25 L/hr. Data were acquired using Masslynx v. 4.1 and analyzed using the Quanlynx software suite. A full scan range from m/z=100-1000 in 0.2 s was used to acquire MS data. Both UV and Single ion recording mass spectrometry were used to determine the quantification of the samples.
Stock solutions were prepared by dissolving compounds into DMSO to yield a concentration of 10 mM. Stock solutions were stored at room temperature.
Calibration standards were made by adding stock solutions to DMSO for final concentrations of compounds at concentration of 100, 25, 6.25, 1.563, 0.391 and 0.098 μM.
Solubility test samples were made by adding stock solutions to 200 μL, of DPBS for final concentrations of compounds at 100 μM in a 96-well analytical plate (300 μL, maximum volume in each well). Samples were tested in triplicates. The plate was sealed, shaken at 600 rpm for 10 minutes, and then was centrifuged at 4000 rpm for 20 min at 22° C. 100 μL, of the supernatant was transferred to a new analytical 96-well plate and 10 μL, was injected onto the LCMS system.
Two calibration curves for solubility test samples were analyzed during the quantitation process. The linear regression of test compound peak areas was weighted by 1/x^2. […] Coefficient of determination (R^2) was used to evaluate the linearity of each calibration curve.

[2] = Microsomal metabolic stability; format: in vitro ADME, mouse
Experimental: Compounds were initially prepared by dissolving them into DMSO at a final concentration of 10 mM. NADPH regenerating solutions A and B and mouse liver microsomes (CD-1) were obtained from BD Gentest (Woburn, Mass.). Ninety-six well deep well plates were obtained from MidWest Scientific Inc (Valley Park, Mo.).
Sample preparation for microsomal stability was modified from methods of Di, L., et al., Int J Pharm. 2005 Jun. 13; 297(1-2):110-9. A set of incubation times of 0, 15, 30, 60, 120, and 240 minutes were used. Mouse liver microsomal solutions were prepared by adding 58 μL of concentrated human or mouse liver microsomes (20 mg/mL protein concentration) to 1.756 mL of 0.1 M potassium phosphate buffer (pH 7.4) and 5 μL of 0.5 M EDTA to make a 0.6381 mg/mL (protein) microsomal solution. NADPH regenerating agent contained 113 μL of NADPH A, 23 μL of NADPH B, and 315 μL of 0.1 M potassium phosphate buffer (pH 7.4). The diluted test compound solutions (2 μL) were each added directly to a 1.79 mL of liver microsomal solution. This solution was mixed and 90 μL was transferred to 6 time points plates (each in triplicate wells). For the time 0 plate, 225 μL of cold acetonitrile with internal standard ([…] warfarin) was added to each well, followed by addition of NADPH regenerating agent (22.5 μL) and no incubation. For other five time points' plate, NADPH regenerating agent (22.5 μL) was added to each well to initiate the reaction. The plates were incubated at 37° C. for the required time, followed by quenching of the reaction by adding 225 μL of cold acetonitrile with internal standard (4 μg/ml warfarin). All of the plates were sealed and mixed well at 600 rpm for 10 minutes followed by centrifugation at 4000 rpm for 20 minutes. The supernatants (120 μL) were transferred to analytical plates for analysis by LCMS. LCMS conditions were described in the materials and instrumentation section above. The metabolic stability is evaluated via the half-life from least-squares fit of the multiple time points based on first-order kinetics.

[3] = Plasma stability assay; format: in vitro ADME, human
Experimental: The plasma stability property of early drug discovery compounds can influence the in vivo efficacy of the test compounds/drugs. Human and/or mouse plasma degradation is determined using multiple time points to monitor the rate of disappearance of the parent compound during incubation.
Sample preparation for plasma stability was modified from Di et al. (2005) Int. J. Pharm. 297(1-2): 110-119. A set of incubation times of 0, 3, 24, and 48 hour were used. DMSO stock solutions of test compounds were prepared at 10 mM concentration. 1.8 μL of each test compound was each added directly to 1.8 mL of human/mouse plasma to get the final concentration of 10 μM. This compound/matrix was mixed and 70 μL was transferred to 8 time points plates (each in triplicate wells). For the Time 0 plate, 210 μL of cold acetonitrile with internal standard (4 μg/mL warfarin) was added to each well and no incubation needed. For other seven time points' plate, the plate was incubated at 37° C. for required time, followed by quenching of the reaction by adding 210 μL of cold acetonitrile with internal standard (4 μg/ml warfarin) to each well. All of the plates were sealed and mixed well at 600 rpm for 10 min and were centrifuged at 4000 rpm for 20 min. The supernatants (120 μL) were transferred to analytical plates for analysis by LCMS. Conditions for Waters ACQUITY-UPLC-MS-UV system was described separately. The plasma stability was evaluated via the half-life from least-squares fit of the multiple time points based on first-order kinetics.

Structure (SMILES) | solubility kinetic at 10 min ([1]; solubility in DPBS, 100 μM test samples, LCMS, read-out: LCMS) | μsol (μM) ([1]; solubility) | Mouse ([2]; microsomal metabolic stability half-life, mouse liver microsomes) | Human ([3]; plasma stability half-life, human plasma, 37° C.) | μsol (μM) [1] | solubility kinetic at 10 min [1] | Mouse ([2]; CD-1, mouse, pH 7.4) | Human ([3]; human, 10 μM)
Cc1ccc(NC(=O)N[C@@H](Cc2cccc(C)c2)C(=O)N[C@H]2COC(=O)[C@@H]3C[C@H](C)CN3C(=O)[C@H](C)NC(=O)[C@@H]3CCCCN3C(=O)[C@@H]3CCCN3C2=O)cc1 (stereo in doubt) [Compound 43, (S)—N-((2S,6S,8AS,14AS,20S,23AS)-2,6-DIMETHYL-5,8,14,19,23-PENTAOXOOCTADECAHYDRO-1H,5H,14H,19H-PYRIDO[2,1-I]DIPYRROLO[2,1-C:2′,1′-L][1]OXA[4,7,10,13]TETRAAZACYCLOHEXADECIN-20-YL)-3-(M-TOLYL)-2-(3-(P-TOLYL)UREIDO)PROPANAMIDE] | 42.2 ± 0.9 µM (≈ 32.6 µg/mL) | 49.8 ± 2.5 µM | 3.57 ± 0.3 h | >50 h | – | – | – | –
Cc1cccc(C[C@H](NC(=O)Nc2ccc3c(c2)OCO3)C(=O)N[C@H]2COC(=O)[C@@H]3C[C@@H](C)CN3C(=O)[C@H](C)NC(=O)[C@@H]3CCCCN3C(=O)[C@@H]3CCCN3C2=O)c1 [Compound 23, (S)-2-(3-(BENZO[D][1,3]DIOXOL-5-YL)UREIDO)-N-((2R,6S,8AS,14AS,20S,23AS)-2,6-DIMETHYL-5,8,14,19,23-PENTAOXOOCTADECAHYDRO-1H,5H,14H,19H-PYRIDO[2,1-I]DIPYRROLO[2,1-C:2′,1′-L][1]OXA[4,7,10,13]TETRAAZACYCLOHEXADECIN-20-YL)-3-(M-TOLYL)PROPANAMIDE] | – | – | – | – | 3.0 ± 0.0 µM | 1.7 ± 0.1 µM (≈ 1.36 µg/mL) | 35.8 ± 14.7 h | >50 h
C[C@@H]1C[C@H]2C(=O)OC[C@H](NC(=O)[C@H](Cc3cc(F)cc(F)c3)NC(=O)Nc3ccc(Cl)cc3F)C(=O)N3CCC[C@H]3C(=O)N3CCN(C)C[C@H]3C(=O)N[C@@H](C)C(=O)N2C1 [Compound 34] ({NH(4-Cl-2-F-phenyl)-CO}-[Phe(3,5-F2)]SP[Piperazine(2S-CO,4-Me)]A[Pro(4R-Me)]; ester 2-C) | – | – | – | – | 38.7 ± 8.7 µM | 53.6 ± 3.58 µM (≈ 45.4 µg/mL) | 1.18 ± .185 h | 26.56 h
Cc1cccc(C[C@H](NC(=O)Nc2ccc(Cl)cc2F)C(=O)N[C@@H]2C(=O)N3CCC[C@H]3C(=O)N3CC(=O)NC[C@H]3C(=O)N[C@@H](C)C(=O)N3C[C@H](C)C[C@H]3C(=O)O[C@H]2C)c1 [Compound 20, (S)-2-(3-(4-CHLORO-2-FLUOROPHENYL)UREIDO)-3-(M-TOLYL)-N-((6AS,12S,13S,15AS,17R,21S,23AS)-13,17,21-TRIMETHYL-3,6,11,15,20,23-HEXAOXOOCTADECAHYDRO-2H,6H,11H,15H-PYRAZINO[2,1-I]DIPYRROLO[2,1-C:2′,1′-L][1]OXA[4,7,10,13]TETRAAZACYCLOHEXADECIN-12-YL)PROPANAMIDE] ({NH(4-Cl-2-F-phenyl)-CO}-[Phe(3-Me)][aThr]P[X4]A[Pro(4R-Me)]; ester 2-C) | – | – | – | – | 29.9 ± 1.5 µM | 34.4 ± 1.1 µM (≈ 28.9 µg/mL) | 6.24 ± 0.7 h | 14.0 h
